The values that follow come from ChEMBL document CHEMBL1201862, “PubChem BioAssay data set” (2004).

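Interpolation was linear, between the two tested concentrations surrounding the appropriate level; five concentrations were tested over 48 hours in 96-well plates. GI50 is the concentration that inhibits growth by half.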 Activity calls are given as the source filed them. Rule as the data show it: active = GI50 up to about 1.1 µM and inactive = higher.

Some test systems named below: SW-620; U-251; SF-295; OVCAR-3; HCT-15; NCI-H522; RXF 393; ACHN; MCF7; CCRF-CEM; SK-MEL-2; CAKI-1; 786-0; Malme-3M; K562; SN12C; SK-MEL-5; UACC-257; SF-268; UO-31.
What all share (assay): NCI anticancer screen, dose series, 48 h

In the case of `COC(=O)c1ccc2c(c1)CCN2C(=O)c1cc2c(cc1Br)OCO2`, the GI50 is 0.822 µM (active) in the assay on SW-620; 0.822 µM (active) with U-251; 0.565 µM (active) with SF-295; 0.313 µM (active) in the assay with OVCAR-3; 1.82 µM with HCT-15; 0.119 µM (active) in the assay with NCI-H522. The GI50 in the assay with RXF 393 is 0.863 µM (active); in the assay with ACHN, 5.19 µM (inactive); in the assay on MCF7, 0.251 µM (active); with CCRF-CEM, 0.404 µM (active); with SK-MEL-2, 0.723 µM (active); in the assay on CAKI-1, 4.7 µM (inactive). The GI50 was 0.74 µM (active) in the assay with 786-0; 0.231 µM (active) in the assay with Malme-3M; 0.19 µM (active) in the assay with K562; 1.81 µM (inactive) in the assay with SN12C; 0.167 µM (active) in the assay with SK-MEL-5; 0.305 µM (active) in the assay on UACC-257. The GI50 was 1.8 µM (inactive) with SF-268 and 2.01 µM (inactive) in the assay with UO-31.
For `O=C(O)c1nc2ccc(C(F)(F)F)cc2[nH]c1=O`, the GI50 in the assay with SW-620 was > 100 µM (inactive); with U-251 it was > 100 µM (inactive); in the assay on SF-295, > 100 µM (inactive); in the assay on OVCAR-3 it was > 100 µM (inactive); in the assay with HCT-15, > 100 µM; in the assay on NCI-H522, > 100 µM (inactive). The GI50 with RXF 393, in the assay with ACHN, in the assay on MCF7, with CCRF-CEM, in the assay on SK-MEL-2 and with CAKI-1 was > 100 µM (inactive) throughout. For the same molecule, the GI50 with Malme-3M, in the assay on K562, in the assay on SN12C, in the assay on SK-MEL-5, with UACC-257 and in the assay with SF-268 was > 100 µM (inactive) throughout. Moreover, the GI50 with UO-31 is > 100 µM (inactive).
For the molecule `CCN(CC)c1ccc2c(c1)Oc1ccc(N(C(C)=O)c3ccccc3)cc1C21OC(=O)c2ccccc21` (stereo unspecified), the GI50 was 47.1 µM (inactive) with SW-620; > 77.3 µM (inactive) in the assay with U-251; 41.8 µM (inactive) in the assay with SF-295; > 100 µM (inactive) in the assay on OVCAR-3; 92.7 µM with HCT-15; 62.7 µM (inactive) in the assay on NCI-H522. Besides, the GI50 in the assay on RXF 393 is > 26.1 µM (inactive); in the assay on ACHN, > 100 µM (inactive); in the assay on MCF7, 40.3 µM (inactive); in the assay on CCRF-CEM, 21.1 µM (inactive); with SK-MEL-2 it was > 100 µM (inactive); in the assay on CAKI-1, > 100 µM (inactive). Besides, the GI50 with 786-0 is > 100 µM (inactive); in the assay with Malme-3M it was 53.3 µM (inactive); with K562, 12.6 µM (inactive); with SN12C, > 100 µM (inactive); in the assay with SK-MEL-5 it was 24.2 µM (inactive); with UACC-257, > 100 µM (inactive). Moreover, the GI50 in the assay with SF-268 was > 100 µM (inactive); in the assay with UO-31, 23.7 µM (inactive).
Regarding `CN(C)CCCCN1CCc2c(n(C)c3ccccc23)C1=O`, the GI50 in the assay with SW-620 is 27.4 µM (inactive); in the assay with SF-295 it was 25.9 µM (inactive); in the assay with OVCAR-3 it was > 81.3 µM (inactive); in the assay with HCT-15 it was 27.9 µM; with NCI-H522 it was 33.3 µM (inactive); in the assay with RXF 393, 42.1 µM (inactive). For the same molecule, the GI50 in the assay with ACHN was 72.1 µM (inactive); with MCF7, 36.6 µM (inactive); in the assay on CCRF-CEM, 63.2 µM (inactive); in the assay on SK-MEL-2, 20 µM (inactive); in the assay on CAKI-1, 29.6 µM (inactive); with 786-0, 33.5 µM (inactive). Moreover, the GI50 in the assay on Malme-3M is 19.2 µM (inactive); in the assay with K562, 26.2 µM (inactive); in the assay on SN12C, 42 µM (inactive); in the assay on SK-MEL-5, 17.7 µM (inactive); in the assay on UACC-257 it was 16.5 µM (inactive); with SF-268 it was 31.3 µM (inactive). The GI50 in the assay on UO-31 was 30.9 µM (inactive).
`COc1cc(Nc2nc3ccc(C(F)(F)F)cc3nc2C(=O)O)cc(OC)c1OC`: the GI50 with SW-620 is 25.7 µM (inactive); in the assay with U-251, 19 µM (inactive); in the assay with SF-295 it was 27.1 µM (inactive); in the assay with OVCAR-3, 32.1 µM (inactive); with HCT-15 it was 18.2 µM; in the assay on NCI-H522, 21.4 µM (inactive). In addition, the GI50 was 25.2 µM (inactive) with RXF 393; 27.4 µM (inactive) in the assay on ACHN; 26.2 µM (inactive) with MCF7; 41.6 µM (inactive) in the assay on CCRF-CEM; 21.8 µM (inactive) with SK-MEL-2; 24.8 µM (inactive) in the assay with CAKI-1. Besides, the GI50 is 27.8 µM (inactive) in the assay with 786-0; 27.1 µM (inactive) in the assay on Malme-3M; 17.9 µM (inactive) in the assay on K562; 14.4 µM (inactive) with SN12C; 34.4 µM (inactive) in the assay on SK-MEL-5; 20 µM (inactive) in the assay on UACC-257. Moreover, the GI50 in the assay with SF-268 was 18.8 µM (inactive); in the assay on UO-31, 19.7 µM (inactive).
As for `CC1(C)CCC2(C(=O)O)C(O)CC3(C)C(=CCC4C5(C)CCC(OC6OCC(O)C(O)C6OC6OCC(O)C(O)C6OC6OCC(O)C(OC7OC(CO)C(O)C(O)C7O)C6O)C(C)(C)C5CCC43C)C2C1` (stereo unspecified), the GI50 in the assay with SW-620 is 39 µM (inactive); in the assay with U-251, 33.7 µM (inactive); in the assay on SF-295, 20.3 µM (inactive); in the assay on OVCAR-3, > 100 µM (inactive); in the assay on HCT-15 it was > 100 µM; in the assay with NCI-H522, 19.8 µM (inactive). Moreover, the GI50 in the assay on RXF 393 is 20 µM (inactive); with ACHN, 35.1 µM (inactive); in the assay on MCF7 it was > 100 µM (inactive); in the assay with CCRF-CEM, 31 µM (inactive); in the assay with SK-MEL-2, 24.5 µM (inactive); with CAKI-1, > 100 µM (inactive). The GI50 in the assay on 786-0 is > 100 µM (inactive); in the assay on Malme-3M it was 27.2 µM (inactive); in the assay on K562, 25.6 µM (inactive); in the assay on SN12C, 23.3 µM (inactive); with SK-MEL-5, > 100 µM (inactive); in the assay with UACC-257, 76.4 µM (inactive). In addition, the values for the GI50 with SF-268 and in the assay with UO-31 were 21.8 µM (inactive) and 17.3 µM (inactive), respectively.
Turning to `CCCC(=O)Nc1cc(/C=C/C(=O)N2CC(CCl)c3c2cc(OCc2ccccc2)c2[nH]cc(C)c32)n(C)c1` (stereo unspecified), the GI50 is 0.0597 µM (active) with SW-620; 0.0513 µM (active) in the assay with U-251; 0.0317 µM (active) in the assay on SF-295; 0.127 µM (active) in the assay with OVCAR-3; 0.106 µM in the assay with HCT-15; 0.00849 µM (active) in the assay on NCI-H522. Also, the GI50 with RXF 393 was 0.0383 µM (active); in the assay on ACHN it was 0.013 µM (active); with MCF7, 0.0025 µM (active); in the assay on CCRF-CEM it was 0.0101 µM (active); in the assay with SK-MEL-2, 0.074 µM (active); in the assay with CAKI-1, 0.0295 µM (active). The GI50 with 786-0 is 0.0365 µM (active); in the assay with Malme-3M, 0.0916 µM (active); with K562, 0.0373 µM (active); in the assay with SN12C, 0.186 µM (active); in the assay with SK-MEL-5 it was 0.02 µM (active); in the assay with UACC-257, 0.105 µM (active). Further, the GI50 in the assay on SF-268 is 0.0226 µM (active); with UO-31 it was 0.0493 µM (active).
`COC(=O)c1c(-c2ccccc2)c2sc3ccccc3n2c1N`: the GI50 with U-251 was 59.4 µM (inactive); with SF-295 it was 34.1 µM (inactive); in the assay on OVCAR-3, 48.9 µM (inactive); in the assay with HCT-15 it was 85.7 µM; in the assay with NCI-H522 it was 24.2 µM (inactive); in the assay on RXF 393 it was 19.4 µM (inactive). The GI50 with ACHN was 50 µM (inactive); with MCF7, 34.8 µM (inactive); in the assay on CCRF-CEM, 52.4 µM (inactive); with SK-MEL-2 it was 32.9 µM (inactive); with CAKI-1, 51.3 µM (inactive); with 786-0, 29.3 µM (inactive). Further, the GI50 in the assay with Malme-3M is 24.9 µM (inactive); with K562, > 100 µM (inactive); in the assay on SN12C, 33 µM (inactive); in the assay with SK-MEL-5 it was 59 µM (inactive); with UACC-257 it was > 100 µM (inactive); with SF-268 it was 44 µM (inactive). Further, in the assay with UO-31, the GI50 is 85.9 µM (inactive).
As for `COC(=O)CC1(CNC(=O)OCc2ccccc2)OCCO1`, the GI50 was > 100 µM (inactive) in the assay with SW-620; > 100 µM (inactive) in the assay on U-251; > 100 µM (inactive) with SF-295; > 100 µM (inactive) with OVCAR-3; > 100 µM with HCT-15; > 100 µM (inactive) with NCI-H522. Moreover, the GI50 in the assay with RXF 393, in the assay with ACHN, in the assay on MCF7, in the assay on CCRF-CEM, in the assay with SK-MEL-2 and with CAKI-1 was > 100 µM (inactive) each time. The GI50 in the assay with 786-0, with Malme-3M, with K562, in the assay on SN12C, with SK-MEL-5 and with UACC-257 was > 100 µM (inactive) in each case. For the same molecule, in the assay on UO-31, the GI50 is > 100 µM (inactive).
Take `CN(C)CCCNc1ccc2nnn3c4ccc(O)cc4c(=O)c1c23`: the GI50 was 1.16 µM (inactive) in the assay on SW-620; 2.73 µM (inactive) with U-251; 4.37 µM (inactive) in the assay with SF-295; 9.02 µM (inactive) in the assay on OVCAR-3; 2.85 µM in the assay on HCT-15; 3.7 µM (inactive) in the assay on NCI-H522. Besides, the GI50 was 0.149 µM (active) in the assay with RXF 393; 1.26 µM (inactive) in the assay with ACHN; 5.7 µM (inactive) in the assay with MCF7; 1.28 µM (inactive) with CCRF-CEM; 12.7 µM (inactive) in the assay with SK-MEL-2; 1.64 µM (inactive) with CAKI-1. The GI50 is 2.86 µM (inactive) with 786-0; 10.3 µM (inactive) in the assay with Malme-3M; 7.26 µM (inactive) with K562; 2.95 µM (inactive) with SN12C; 5.73 µM (inactive) in the assay with SK-MEL-5; 15.8 µM (inactive) in the assay on UACC-257. In addition, the GI50 in the assay on SF-268 is 2.88 µM (inactive); in the assay on UO-31, 2.06 µM (inactive).
